Results on five molecules are retold here after patent US20090087894A1, “Method for improving enzymatic activity of glycosyltransferases” (Japan Tobacco Inc., priority 2004, published 2009).

Data set [1] concerns glycosyltransferase (crude α2,6-sialyltransferase) of P. damsela ATCC35083. In words: Effect of NaCl on activity of crude α2,6-sialyltransferase from P. damselae ATCC35083. It is filed as biochemical, Photobacterium damselae. The protocol: (§1) ATCC33539T and ATCC35083, which were strains belonging to Photobacterium damselae but different from JT0160, were cultured and the resulting cells were used to prepare crude enzyme solutions according to the procedure for preparing a crude enzyme solution of P. damselae JT0160 (Purification and characterization of a Marine bacterial β-Galactoside α2,6-Sialyltransferase from Photobacterium damselae JT0160 J. Biochem. 120, 104-110, 1996). These crude enzymes were used in the following experiment.
(§2) The enzyme reaction was accomplished in 20 μl reaction solution containing CMP-^14C-NeuAc as a glycosyl donor substrate (50.066 nmol, 25000 cpm), lactose as a glycosyl acceptor substrate (1 mmol), glycosyltransferase derived from various strains (1 mU or less) and NaCl at a concentration of 0.5 M (30° C., 1 minute). After completion of the enzymatic reaction, the radioactivity of NeuAc which was transferred to lactose under the respective conditions was measured to calculate the enzyme activity, thereby studying the effect of NaCl on the enzyme activity in each test range. More specifically, after completion of the reaction, each reaction solution was supplemented with 1.98 ml of 5 mM phosphate buffer (pH 6.8) and applied to a AG1−×2Resin (PO4^3− form, 0.2×2 cm) column. […] The eluate (0 to 2 ml) from this column was measured for its radioactivity.

Data set [2] has as its target T1, deletion mutant of recombinant α2,6-sialyltransferase; N2C1, derived from P. damselae JT0160 (Photobacterium damselae, UniProt O66375).
T1 construct: lacks the N-terminal (Met) 107 amino acid residues and the C-terminal 176 amino acid residues; made in house; host or cells: E. coli, crude enzyme solution
In words: Effect of NaCl on enzyme activity of deletion mutant of recombinant α2,6-sialyltransferase N2C1. It is filed as biochemical. Conditions: 0.2 to 1.5 M NaCl in the reaction solution; FIG. 4. Here is the method: The transformed E. coli cells were cultured at 30° C. at 180 rpm for 12 hours in L Broth (containing ampicillin at a final concentration of 0.2 mg/ml and IPTG at a final concentration of 1 mM), followed by centrifugation to collect the cells. The collected cells were suspended in 20 mM sodium cacodyrate buffer (pH 5.0) and then ultrasonicated at 4° C. to homogenize the cells, thereby preparing a crude enzyme solution containing a sialyltransferase protein from the N2C1 gene. […] This N2C1 gene-derived sialyltransferase protein was used in the following experiment.
The enzyme reaction was accomplished in 20 μl reaction solution containing CMP-^14C-NeuAc as a glycosyl donor substrate (50.066 nmol, 25000 cpm), lactose as a glycosyl acceptor substrate (1 mmol), N2C1 (0.5 to 1.5 mU) and NaCl at a concentration varying from 0 to 2.5 M (30° C., 1 minute). After completion of the enzyme reaction, the radioactivity of NeuAc which was transferred to lactose under the respective conditions was measured to calculate the enzyme activity, thereby studying the effect of NaCl on the enzyme activity in each test range.
More specifically, after completion of the reaction, each reaction solution was supplemented with 1.98 ml of 5 mM phosphate buffer (pH 6.8) and applied to a AG1−×2Resin (PO43-form, 0.2×2 cm) column. […] The eluate (0 to 2 ml) from this column was measured for its radioactivity.

The subject of data set [3] is glycosyltransferase (crude α2,6-sialyltransferase) of P. damsela ATCC33539. In words: Effect of NaCl on activity of crude α2,6-sialyltransferase from P. damselae ATCC33539. The data set is classed as biochemical, Photobacterium damselae. Here is the method: as §1, §2
Data set [4] can be described thus: Confirmation of α2,3-sialyltransferase activity with pyridylaminated lactose as glycosyl acceptor, HPLC. It is filed as biochemical. Conditions: pyridylaminated lactose and CMP-sialic acid, 25° C. From the text: Determination of the binding mode of sialic acid was accomplished by using a pyridylaminated sugar chain. The resulting enzyme was used to carry out an enzymatic reaction in the presence of a pyridylaminated sugar chain as a glycosyl acceptor substrate. The pyridylaminated sugar chain used for analysis was pyridylaminated lactose (Galβ1, 4Glc-PA, PA-Sugar Chain 026, Takara Bio Inc., Japan). As a standard, pyridylaminated α2,3sialyllactose (NeuAcα2,3Galβ1, 4Glc-PA, PA-Sugar Chain 029, Takara Bio Inc., Japan) was used. The glycosyl acceptor substrate, CMP-NeuAc and the enzyme were dissolved at 2.0 mM, 5.7 μM and about 20 mU/ml, respectively, in 25 μl of 20 mM cacodylate buffer (pH 6.0) or Bis-Tris buffer (pH 6.0), and then reacted at 25° C. for 3 to 18 hours. After completion of the reaction, the reaction solution was treated at 100° C. for 2 minutes to deactivate the enzyme, followed by HPLC to analyze the reaction product.
The HPLC system used was, Shimadzu LC10A (Shimadzu Corporation, Japan) and the analytical column used was Takara PALPAK Type R (Takara Bio Inc., Japan). The column which had been equilibrated with 100 mM acetate-triethylamine (pH 5.0) containing 0.15% N-butanol was injected with the reaction solution diluted with Eluent A (100 mM acetate-triethylamine, pH 5.0). For elution of the pyridylaminated sugar chain, Eluent A (100 mM acetate-triethylamine, pH 5.0) and Eluent B (100 mM acetate-triethylamine containing 0.5% n-butanol, pH 5.0) were used to successively elute the pyridylaminated sugar chain with a linear gradient of 30% to 100% Eluent B (0 to 35 minutes) and then 100% Eluent B (35 to 50 minutes). The analysis was performed under the following conditions: flow rate: 1 ml/min, column temperature: 40° C., detection: fluorescence (Ex: 320 nm, Em: 400 nm).
As in the case of Reference Example 1-1, pyridylaminated lactose was used as a glycosyl acceptor to carry out the enzyme reaction. After completion of the reaction, the reaction solution was thermally treated at 95° C. for 5 minutes to deactivate the enzyme, followed by HPLC analysis. It should be noted that the enzyme reaction was accomplished at 25° C. for 6 hours using pyridylaminated lactose and CMP-sialic acid dissolved at 2.0 μM and 5.7 μM, respectively, in 25 μl of 20 mM cacodylate buffer (pH 6.0) (Reaction 1). On the other hand, a control experiment (Reaction 2) was carried out using a reaction solution free from CMP-sialic acid. Further, to clarify the retention time of standards, the crude enzyme solution was deactivated by thermal treatment (95° C., 5 minutes) and tested in the presence of pyridylaminated lactose and pyridylaminated α2,3-sialyllactose.

T1 sequence (O66375 entry or part of it, stated change not applied): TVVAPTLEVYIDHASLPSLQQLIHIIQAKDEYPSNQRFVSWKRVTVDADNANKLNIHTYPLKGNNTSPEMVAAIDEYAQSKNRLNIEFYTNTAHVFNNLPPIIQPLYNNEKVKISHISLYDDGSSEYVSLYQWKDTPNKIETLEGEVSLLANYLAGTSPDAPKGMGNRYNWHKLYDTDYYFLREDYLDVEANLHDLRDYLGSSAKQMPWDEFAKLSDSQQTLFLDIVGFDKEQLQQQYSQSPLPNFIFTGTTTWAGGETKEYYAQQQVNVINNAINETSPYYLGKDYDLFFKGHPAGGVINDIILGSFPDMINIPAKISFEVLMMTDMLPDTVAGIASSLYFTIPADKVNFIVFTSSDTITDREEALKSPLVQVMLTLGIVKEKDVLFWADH

Take `[Cl-].[Na+]` [NaCl]: the Radioactivity in data set [1] (+NaCl, 0.5 M, 30° C., 1 minute) was 9733; in data set [3] (+NaCl, 0.5 M, 30° C., 1 minute), 11071. Moreover, the “+NaCl/−NaCl” value is 1.3 in data set [1] (NaCl 0.5 M) and 1.2 in data set [3] (NaCl 0.5 M). Moreover, the “enzyme activity compared to the absence of NaCl” value in data set [2] was “activated”.

B1: 224-N1C0: recombinant JT-ISH-224 α2,3-sialyltransferase lacking the signal peptide region, expressed in E. coli (protein)
chain: MLVFCKKMFFSVFISLMILGGCNSDSNHNNSDGNITKNKTIEVYVDRATLPTIQQMTQIINENSNNKKLISWSRYPINDEELLESINGSFFKNNSELIKSLDSMILTNDIKKVIINGNTLWAADVVNIIKSIEAFGKKTEIELNFYDDGSAEYVRLYDFSKLPESEQEYKISLSKDNILSSINGTQPFENVVENIYGFSQLYPTTYHMLRADIFETNLPLRSLKGVLSNNIKQMKWDYFKTFNSQQKDKFYNFTGFNPDEIMEQYKASPNKNFIFVGTNSGTATAEQQIDILTEAKNPNSPIITKSIQGFDLFFKGHPSATYNKQIIDAHNMIEIYNKIPFEALIMTDALPDAVGGMGSSVFFSLPNTVENKFIFYKSDTDIENNALIQVMIELNIVNRNDVKLISDLQ
modifications: OTHER INFORMATION: /gene=“224-23ST” /product=“beta-galactoside-alpha-2,3-sialyltransferase”
notes: recombinant JT-ISH-224 α2,3-sialyltransferase lacking the signal peptide region, expressed in E. coli
For B1, the “α2,3-sialyltransferase activity (formation of pyridylaminated α2,3-sialyllactose)” value (from here on “α2,3-sialyltransferase activity”) in data set [4] was “a peak of pyridylaminated α2,3-sialyllactose was detected”.

B2: 467-N2C0: recombinant JT-ISH-467 α2,3-sialyltransferase lacking the signal peptide region, expressed in E. coli (protein)
chain: MFVFCKKIFFLIFISLMILGGCNSDSKHNNSDGNITKNKTIEVYVDRATLPTIQQMTQIINENSNNKKLISWSRYPINDETLLESINGSFFKNRPELIKSLDSMILTNEIKKVIINGNTLWAVDVVNIIKSIEALGKKTEIELNFYDDGSAEYVRLYDFSRLPESEQEYKISLSKDNIQSSINGTQPFDNSIENIYGFSQLYPTTYHMLRADIFETNLPLTSLKRVISNNIKQMKWDYFTTFNSQQKNKFYNFTGFNPEKIKEQYKASPHENFIFIGTNSGTATAEQQIDILTEAKKPDSPIITNSIQGLDLFFKGHPSATYNQQIIDAHNMIEIYNKIPFEALIMTDALPDAVGGMGSSVFFSLPNTVENKFIFYKSDTDIENNALIQVMIELNIVNRNDVKLISDLQ
modifications: OTHER INFORMATION: /gene=“467-23ST” /product=“beta-galactoside-alpha2,3-sialyltransferase”
notes: recombinant JT-ISH-467 α2,3-sialyltransferase lacking the signal peptide region, expressed in E. coli
For B2, the “α2,3-sialyltransferase activity” value in data set [4] is “had α2,3-sialyltransferase activity”.

B3: 467-N0C0: recombinant full-length α2,3-sialyltransferase of Photobacterium phosphoreum JT-ISH-467 expressed in E. coli (protein)
chain: B2 chain
modifications: OTHER INFORMATION: /gene=“467-23ST” /product=“beta-galactoside-alpha2,3-sialyltransferase”
notes: recombinant full-length α2,3-sialyltransferase of Photobacterium phosphoreum JT-ISH-467 expressed in E. coli
As for B3, the “α2,3-sialyltransferase activity” value in data set [4] is given as “found to have α2,3-sialyltransferase activity”.

B4: FAJ-N0C0: recombinant full-length α2,3-sialyltransferase of Vibrio sp. JT-FAJ-16 expressed in E. coli (protein)
chain: MKNIITKRMLIILSSLFTIIGCNNDNSTTTNNNAIEIYVDRATLPTIQQMTKIVSQKTSNKKLISWSRYPITDKSLLKKINAEFFKEQFELTESLKNIILSENIDNLIIHGNTLWSIDVVDIIKEVNLLGKNIPIELHFYDDGSAEYVRIYEFSKLPESEQKYKTSLSKNNIKFSIDGTDSFKNTIENIYGFSQLYPTTYHMLRADIFDTTLKINPLRELLSNNIKQMKWDYFKDFNYKQKDIFYSLTNFNPKEIQEDFNKNSNKNFIFIGSNSATATAEEQINIISEAKKENSSIITNSISDYDLFFKGHPSATFNEQIINAHDMIEINNKIPFEALIMTGILPDAVGGMGSSVFFSIPKEVKNKFVFYKSGTDIENNSLIQVMLKLNLINRDNIKLISDI
modifications: OTHER INFORMATION: /gene=“FAJ16-23ST” /product=“beta-galactoside-alpha2,3-sialyltransferase”
notes: recombinant full-length α2,3-sialyltransferase of Vibrio sp; JT-FAJ-16 expressed in E. coli
Turning to B4, the “α2,3-sialyltransferase activity” value in data set [4] is on record as “a peak of pyridylaminated α2,3-sialyllactose was detected”.
